Reference: US20130011376A1, “Methods for Enhancing Natural Killer Cell Proliferation and Activity” (GAMIDA CELL LTD., priority 2009, published 2013)
Read-outs that look alike come from different tables or passages of the source.

Key:
[1] = test system: T-cell depleted (CD3 or CD3/CD19 depleted) peripheral blood NK cell populations; assay: CD62L expression on T-cell depleted peripheral blood NK cell cultures (FACS); format: cell-based, human; conditions: 2.5 and 5.0 mM nicotinamide, after 7, 14 and 21 days in culture
Description: For depletion procedure, total nuclear cells from umbilical cord blood (CB), bone marrow (BM) or peripheral blood (PB) cells were layered on a Ficoll-Hypaque gradient (1.077 g/mL; Sigma), and centrifuged at 800×g for 30 minutes for separation of the mononuclear cells. The cells in the interface layer were collected and washed three times in phosphate-buffered saline (PBS) (Biological Industries, Israel) containing 0.5% HSA. Optionally, cells are not separated on the Ficoll-Hypaque gradient but washed three times in phosphate-buffered saline (PBS) (Biological Industries) containing 0.5% HSA (“total mononuclear fraction”). […] After negative depletion the cells were counted and characterized by FACS analysis.
3. […] To estimate number of cells in culture, cell samples were counted following staining with trypan blue. […]
The cells were washed with a PBS solution containing 1% BSA, and stained (at 4° C. for 30 min) with fluorescein isothiocyanate (FITC)- or phycoerythrin (PE)-conjugated antibodies or allophycocyanin (APC). The cells were then washed in the above buffer and analyzed using a FACScalibur® flow cytometer (Becton Dickinson, San Jose, Calif., USA). […] Emission of 10^4 cells was measured using logarithmic amplification, and analyzed using the CellQuest software (Becton Dickinson). […]

[2] = test system: peripheral blood-derived, immunobeads-purified CD56+ cells; assay: Assay of CD62L expression on NK cell surface, purified peripheral blood CD56+ cells; format: cell-based, human; conditions: 2.5-7.5 mM nicotinamide, 3 weeks in culture
Description: Cultures were initiated with peripheral-blood-derived CD56+ cells purified with immunomagnetic beads and activated with cytokines (including IL-2 and IL-15) with or without nicotinamide (2.5, 5 and 7.5 mM). NK cells were stained with specific antibodies for the specified surface markers (e.g., CD62L) before activation in culture and after 3 weeks incubation with nicotinamide, and then monitored by FACS.

BL2 target cells = format: cell-based; conditions: 2.5 mM or 5.0 mM nicotinamide for 3 weeks; E:T 1:1 to 10:1
Description: (§1) “Killing” assay: NK cells (effectors cells=E) are combined with K562 or BL2 (target cells=T), or bi-phenotypic leukemia cells at different E to T ratio (E:T). BL2 or K562, or bi-phenotypic leukemia target cells in PBS were labeled with 1 ng/ml CFSE (Invitrogen) for 15 min at 37° C. Calf Serum was added to the cells for 15 minutes, the cells were then washed and resuspended in RPMI medium. 100 μL of bi-phenotypic leukemia, BL2 or K562 cells were placed in a 96 round bottom plate at a concentration of 5×10^3 cells per well. 100 μL of non-stained NK cells were added to the bi-phenotypic leukemia, BL2 or K562 cells at a E:T ratio of 1:1, 2.5:1, 5:1, 10:1 or 20:1 (5×10^3, 1.25×10^4, 2.5×10^4, 5×10^4 and 1×10^5 cells/well, respectively, as indicated). Between 2-48 hours later. Killing of target cells in cell lines such as K562 and BL-2 was determined by FACS as a percentage propidium-iodine (PI)-positive (dead) CFSE-labeled cells. Killing of the primary leukemia cells was determined by counting with the FACS the number of CFSE stained cells that remained in the culture after their culture with the NK cells. A lower number of CFSE+ cells is indicative of higher level of killing.

K562 target cells [3] = format: cell-based
Description: as §1

[4] = test system: human primary bi-phenotypic leukemia cells; format: cell-based; conditions: after 24 hours, NK cells of 2 donors (Donor A and Donor B)
Description: as §1

K562 target cells [5] = assay: Killing assay, NK cells expanded with irradiated feeder cells; format: cell-based, human; conditions: 5:1, 2.5:1 and 1:1 NK cells per target cell
Description: as §1
Peripheral blood-derived mononuclear cell fractions were CD3 depleted and then selected for CD56+ cells by immunobead purification. […]

Structure (SMILES): NC(=O)c1cccnc1 [nicotinamide]
- CD62L-positive cells among the NK cells [1]: increased percentage
- expression of CD62L following activation in culture with IL-2 [2]: remarkable increase
- killing (cytotoxic) potential vs cells cultured in growth factors only (BL2 target cells): far greater
- killing (cytotoxic) potential vs cells cultured in growth factors only (K562 target cells [3]; 2.5 mM or 5.0 mM nicotinamide for 3 weeks, E:T 1:1 to 10:1): far greater
- killing (cytotoxic) potential vs cells cultured in growth factors only (K562 target cells [3]; E:T ratios of 1:5, 1:10 and 1:20 NK cells per target): far greater
- cytotoxic potential of expanded NK cells [4]: increased activation of NK cells killing potential
- ex-vivo killing potential (K562 target cells [5]): increased cytotoxic capability
